A short description of data set [1]: Plasma concentration in rats after oral administration (HPLC). The conditions noted are these: rat, plasma, po, 100 mg/kg.
Procedure: (§1) For the pharmacokinetic characterization, the plasma concentration of selected derivatives was determined in rats after intravenous (i.v.), subcutaneous (s.c.) and peroral (p.o.) application according to the following three-step procedure:
(§2) 1. A physiological NaCl solution of the substance to be tested was submitted to high pressure liquid chromatography (HPLC) in order to determine its characteristic substance-specific retention time with the chosen test conditions.
(§3) 2. The substance to be tested was diluted in vitro in rat plasma. This solution was also submitted to HPLC to see whether the characteristic peak of the substance once again appeared at the substance-specific retention time.
(§4) 3. […] Blood samples were taken at time intervals of 15 minutes, from which plasma samples were prepared by centrifugation; those samples were also submitted to HPLC to see whether the characteristic peak of the substance appeared again at the substance-specific retention time.
In data set [2] the target is tPA (Homo sapiens, UniProt P00750). In words: Inhibition of tPA (Ki). Type of data set: biochemical. To be noted: Table 26.
Data set [3] in a line: Plasma concentration in rats after intravenous administration (HPLC). To be noted: for Concentration in plasma: i.v. 1 mg/kg.
Procedure: as §1, §2, §3, §4
Data set [4] concerns the target T1, plasma kallikrein (Homo sapiens, UniProt P03952).
T1 construct: glandular kallikrein, factor XIIa and plasma kallikrein
Kind of data set: Inhibition of plasma kallikrein (Ki). In kind it is biochemical. The conditions noted are these: Table 26.

The target in data set [5] is T2, plasmin (Homo sapiens, UniProt P00747).
T2 construct: trypsin and the related enzymes thrombin, plasmin, factor Xa, tPA
Kind of data set: Inhibition of plasmin (Ki). To be noted: Table 26. Type of data set: biochemical.

Data set [6] deals with thrombin (Bos taurus, UniProt P00735). In words: Inhibition of thrombin (dissociation constant Ki). Type of data set: biochemical.
A short description of data set [7]: in vivo. To be noted: mouse.
In data set [8] the target is factor Xa (Bos taurus, UniProt P00743). In words: Inhibition of factor Xa (dissociation constant Ki). Type of data set: biochemical. To be noted: Tables 19-25; read-out: Ki, Factor Xa.
Data set [9] deals with glandular kallikrein (Sus scrofa, UniProt P00752). In words: Inhibition of glandular kallikrein (Ki). In kind it is biochemical. To be noted: Table 26; read-out: Ki, Gland. Kallikrein.
Data set [10] concerns the target T3, factor XIIa (Homo sapiens, UniProt P00748).
T3 construct: glandular kallikrein, factor XIIa and plasma kallikrein
T3 sequence (P00748 373-615 limits assumed): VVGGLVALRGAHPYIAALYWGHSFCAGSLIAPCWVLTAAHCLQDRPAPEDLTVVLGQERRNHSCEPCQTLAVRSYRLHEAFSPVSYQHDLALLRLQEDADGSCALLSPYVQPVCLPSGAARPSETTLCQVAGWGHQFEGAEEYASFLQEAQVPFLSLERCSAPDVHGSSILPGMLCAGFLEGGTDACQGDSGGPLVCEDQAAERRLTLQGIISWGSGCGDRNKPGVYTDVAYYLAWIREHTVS
In words: Inhibition of factor XIIa (Ki). In kind it is biochemical. The conditions noted are these: Table 26.

Data set [11] can be described thus: Plasma concentration in rats after subcutaneous administration (HPLC). To be noted: rat.
Procedure: as §1, §2, §3, §4
For data set [12], the target named is T4, trypsin (Bos taurus, UniProt P00760).
T4 sequence (P00760 24-246): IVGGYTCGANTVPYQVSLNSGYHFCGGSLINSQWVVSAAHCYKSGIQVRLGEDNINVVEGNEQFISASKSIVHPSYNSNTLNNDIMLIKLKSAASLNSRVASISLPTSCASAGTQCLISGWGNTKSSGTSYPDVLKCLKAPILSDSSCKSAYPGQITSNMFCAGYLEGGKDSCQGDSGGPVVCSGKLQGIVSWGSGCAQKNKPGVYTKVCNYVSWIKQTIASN
Kind of data set: Inhibition of trypsin (Ki). In kind it is biochemical. To be noted: Table 26.

pKi: −log10 of the molar value. Counter-ions that a name gives are not always drawn.

Chain of factor Xa (P00743 234-492 limits assumed): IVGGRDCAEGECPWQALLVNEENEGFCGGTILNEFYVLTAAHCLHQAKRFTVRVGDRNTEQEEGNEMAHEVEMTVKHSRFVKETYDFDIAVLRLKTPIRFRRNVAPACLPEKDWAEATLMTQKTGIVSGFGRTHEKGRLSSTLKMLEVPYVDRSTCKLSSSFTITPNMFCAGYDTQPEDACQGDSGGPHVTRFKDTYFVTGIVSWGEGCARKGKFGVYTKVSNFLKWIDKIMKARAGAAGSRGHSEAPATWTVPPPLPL
Chain of factor Xa (P00743 41-180 partner limits assumed): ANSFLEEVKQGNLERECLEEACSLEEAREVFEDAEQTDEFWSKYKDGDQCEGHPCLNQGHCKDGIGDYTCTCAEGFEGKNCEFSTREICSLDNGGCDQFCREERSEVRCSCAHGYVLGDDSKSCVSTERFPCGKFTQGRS
T1 sequence (P03952 391-638 limits assumed, species assumed): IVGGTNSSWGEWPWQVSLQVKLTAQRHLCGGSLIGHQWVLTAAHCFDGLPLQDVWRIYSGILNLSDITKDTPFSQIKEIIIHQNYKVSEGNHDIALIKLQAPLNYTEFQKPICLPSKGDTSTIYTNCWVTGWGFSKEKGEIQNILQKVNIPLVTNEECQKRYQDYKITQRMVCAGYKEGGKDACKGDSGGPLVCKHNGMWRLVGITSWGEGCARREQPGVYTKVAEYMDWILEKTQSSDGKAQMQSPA
T1 sequence (P03952 20-390 partner limits assumed, species assumed): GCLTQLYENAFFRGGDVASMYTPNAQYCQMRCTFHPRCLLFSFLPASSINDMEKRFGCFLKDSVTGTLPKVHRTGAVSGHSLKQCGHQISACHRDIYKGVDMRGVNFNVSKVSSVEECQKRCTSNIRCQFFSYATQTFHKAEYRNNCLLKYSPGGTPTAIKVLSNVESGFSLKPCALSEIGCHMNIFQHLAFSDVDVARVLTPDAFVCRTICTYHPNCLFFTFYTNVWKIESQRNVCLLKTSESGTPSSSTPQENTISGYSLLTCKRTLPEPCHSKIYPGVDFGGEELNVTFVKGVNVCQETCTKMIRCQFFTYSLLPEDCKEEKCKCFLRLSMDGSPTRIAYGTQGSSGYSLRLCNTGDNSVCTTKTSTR
T2 sequence (P00747 581-810 limits assumed): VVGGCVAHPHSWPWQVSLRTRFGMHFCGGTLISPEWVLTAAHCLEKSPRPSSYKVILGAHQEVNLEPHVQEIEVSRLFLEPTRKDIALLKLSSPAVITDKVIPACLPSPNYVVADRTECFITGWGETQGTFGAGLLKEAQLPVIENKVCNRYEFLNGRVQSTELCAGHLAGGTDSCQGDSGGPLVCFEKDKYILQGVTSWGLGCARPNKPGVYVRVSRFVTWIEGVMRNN
T2 sequence (P00747 97-580 partner limits assumed): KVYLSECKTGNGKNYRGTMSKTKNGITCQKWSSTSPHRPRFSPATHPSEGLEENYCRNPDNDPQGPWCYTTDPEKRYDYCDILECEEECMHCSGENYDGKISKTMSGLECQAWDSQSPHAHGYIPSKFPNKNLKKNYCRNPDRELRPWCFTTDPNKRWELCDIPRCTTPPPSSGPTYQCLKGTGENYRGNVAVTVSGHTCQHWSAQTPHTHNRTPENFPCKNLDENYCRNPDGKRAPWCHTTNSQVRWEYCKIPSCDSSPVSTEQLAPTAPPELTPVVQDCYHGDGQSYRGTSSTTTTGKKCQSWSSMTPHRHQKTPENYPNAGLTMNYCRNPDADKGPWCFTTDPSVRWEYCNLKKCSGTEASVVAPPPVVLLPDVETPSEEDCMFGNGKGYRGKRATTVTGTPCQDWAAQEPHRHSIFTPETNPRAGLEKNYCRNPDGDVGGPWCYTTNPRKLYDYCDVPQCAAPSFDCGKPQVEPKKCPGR
Chain of glandular kallikrein (P00752 8-246): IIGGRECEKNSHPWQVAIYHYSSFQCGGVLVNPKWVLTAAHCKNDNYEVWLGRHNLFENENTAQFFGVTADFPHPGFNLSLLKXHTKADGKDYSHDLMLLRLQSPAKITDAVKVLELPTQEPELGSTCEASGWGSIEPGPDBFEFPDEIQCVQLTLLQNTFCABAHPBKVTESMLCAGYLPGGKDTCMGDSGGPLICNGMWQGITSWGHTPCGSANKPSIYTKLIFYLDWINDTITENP
Chain of tPA (P00750 36-562): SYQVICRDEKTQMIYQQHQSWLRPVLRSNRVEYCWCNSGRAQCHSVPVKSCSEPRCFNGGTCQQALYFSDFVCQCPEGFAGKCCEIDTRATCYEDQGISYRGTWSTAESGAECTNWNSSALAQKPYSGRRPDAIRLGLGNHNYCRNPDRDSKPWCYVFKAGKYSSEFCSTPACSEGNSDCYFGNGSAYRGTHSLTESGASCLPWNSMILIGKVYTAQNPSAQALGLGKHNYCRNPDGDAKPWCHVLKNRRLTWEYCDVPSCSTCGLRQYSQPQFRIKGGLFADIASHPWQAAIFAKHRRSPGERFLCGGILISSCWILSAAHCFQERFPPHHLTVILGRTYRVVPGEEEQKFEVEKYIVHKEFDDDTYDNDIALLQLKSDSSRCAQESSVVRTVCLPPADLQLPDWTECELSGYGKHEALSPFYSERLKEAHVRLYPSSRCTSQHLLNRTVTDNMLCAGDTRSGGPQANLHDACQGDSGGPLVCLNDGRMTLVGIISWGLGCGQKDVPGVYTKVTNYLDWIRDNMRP

In [1], `N=C(N)c1cccc(CC(NS(=O)(=O)c2ccc3ccccc3c2)C(=O)N2CCCCC2C(=O)O)c1` (racemic) [Compound 83] yielded a concentration at 0.25 h of 133 ng/mL, a concentration at 0.5 h of 79 ng/mL, a concentration at 1 h of 50 ng/mL and a concentration at 1.5 h of 37 ng/mL. Also, in [1], the concentration at 2 h is 38 ng/mL, the concentration at 3 h came to 25 ng/mL and the concentration at 4 h was determined as 23 ng/mL. In [2], this compound had a pKi of 3.69. Further, in data set [3] (in words, compared with NAPAP), the pharmacokinetic properties entry is recorded as “improved pharmacokinetic properties”. For the same compound, in data set [3] (rat, 120 min), the Concentration in plasma was 0 ng/mL. In data set [3] (rat, 180 min), this compound had a Concentration in plasma of 0 ng/mL. Also, in [3] (rat, plasma, iv, 1 mg/kg), the concentration at 2 min was 1900 ng/mL, the concentration at 5 min stood at 928 ng/mL, the concentration at 10 min was determined as 496 ng/mL and the concentration at 0.25 h was found to be 243 ng/mL. In [3] (rat, plasma, iv, 1 mg/kg), this compound showed a concentration at 0.5 h of 150 ng/mL, a concentration at 0.75 h of 115 ng/mL, a concentration at 1 h of 85 ng/mL and a concentration at 1.5 h of 45 ng/mL. Moreover, the pKi in [4] is 4.49. In [5], this compound gave a negative-log Ki (pKi) of 4.47. Further, the pKi in [6] was 6.59. Moreover, the 50% lethal dose (LD50) at 168 h in data set [7] (iv) was determined as 272 mg/kg. For the same compound, the LD50 at 168 h in [7] (po) was greater than 3000 mg/kg. In data set [8], the pKi is 4.42. The pKi in data set [9] was roughly 3.00. In data set [10], the pKi is less than 3.00. In [11] (plasma, sc, 5 mg/kg), this compound displayed a concentration at 0.25 h of 402 ng/mL, a concentration at 0.5 h of 620 ng/mL, a concentration at 0.75 h of 626 ng/mL and a concentration at 1 h of 568 ng/mL. Moreover, in data set [11] (plasma, sc, 5 mg/kg), the concentration at 1.5 h was found to be 467 ng/mL, the concentration at 2 h turned out to be 415 ng/mL, the concentration at 3 h worked out at 314 ng/mL and the concentration at 4 h is 297 ng/mL.
With `CC1CCN(C(=O)C(Cc2cccc(C(=N)N)c2)NS(=O)(=O)c2ccc3ccccc3c2)C(C(=O)O)C1` (racemic) [Compound 86], the pKi in data set [2] was 3.33; in data set [4], 4.08; in [5] it was 4.38; in [6], 6.92; in data set [8] it was 4.02; in data set [9] it was less than 3.00. Moreover, the results for the pKi in data set [10] and in data set [12] were less than 3.00 and 5.92, respectively.
For `N=C(N)c1cccc(CC(NS(=O)(=O)c2ccc3ccccc3c2)C(=O)N2Cc3ccccc3CC2C(=O)O)c1` (racemic) [Compound 134, N-α-(2-Naphtylsulfonyl)-3-amidino-(D,L)-phenylalanyl-1,2,3,4-tetrahydroisoquinoline-3-carboxylic acid], in [1], the concentration at 0.25 h worked out at 188 ng/mL, the concentration at 0.5 h was determined as 260 ng/mL, the concentration at 0.75 h was found to be 297 ng/mL and the concentration at 1 h came out at 260 ng/mL. In data set [1], the concentration at 2 h amounted to 234 ng/mL, the concentration at 3 h turned out to be 236 ng/mL, the concentration at 4 h worked out at 210 ng/mL and the concentration at 5 h worked out at 157 ng/mL. The compound further returned a concentration at 6 h in [1] of 86 ng/mL. Besides, the pKi in data set [2] was less than 3.00. Besides, the Concentration in plasma in data set [3] (rat, 90 min) was found to be 0 ng/mL. In data set [3] (rat, plasma, iv, 1 mg/kg), the concentration at 2 min stood at 4440 ng/mL, the concentration at 5 min worked out at 1680 ng/mL, the concentration at 10 min is 775 ng/mL and the concentration at 0.25 h is 621 ng/mL. In [3] (rat, plasma, iv, 1 mg/kg), this compound gave a concentration at 0.5 h of 79 ng/mL, a concentration at 0.75 h of 78 ng/mL and a concentration at 1 h of 10 ng/mL. Further, the pKi in data set [4] was 5.82. Also, the pKi in data set [5] was 6.17. Besides, the pKi in [6] was 7.74. For the same compound, in data set [7] (iv), the LD50 at 168 h is 29 mg/kg. The compound further came in with an LD50 at 168 h in data set [7] (po) greater than 3000 mg/kg. In [8], the pKi was 4.38. The pKi in data set [9] was 3.41. This compound also had a pKi in [10] of less than 3.00. In data set [11] (plasma, sc, 5 mg/kg), this compound showed a concentration at 0.5 h of 35 ng/mL, a concentration at 0.75 h of 72 ng/mL, a concentration at 1 h of 79 ng/mL and a concentration at 1.5 h of 92 ng/mL. Further, in data set [11] (plasma, sc, 5 mg/kg), the concentration at 2 h was found to be 145 ng/mL, the concentration at 3 h was determined as 285 ng/mL, the concentration at 4 h turned out to be 268 ng/mL and the concentration at 5 h was 248 ng/mL. In [11] (s.c. 5 mg/kg, 15 min), the Concentration in plasma was 0 ng/mL.
Take `CC1CCN(C(=O)C(Cc2cccc(C(=N)N)c2)NC(=O)CNS(=O)(=O)c2ccc3ccccc3c2)CC1` (racemic) [Compound 156, N-α-(2-Naphthylsulfonyl)-glycyl-3-amidino-(D,L)-phenylalanine-4-methylpiperidide]: the pKi in data set [2] is 3.47; in data set [4], 4.17; in [5], 4.34; in data set [6], 5.44; in data set [8], 4.60; in data set [9] it was less than 3.00. Further, the pKi is 3.46 in data set [10] and 4.34 in data set [12].
Regarding `CC1CCN(C(=O)C(Cc2cccc(CN)c2)NS(=O)(=O)c2ccc3ccccc3c2)CC1` (racemic) [Compound 182, N-α-(2-Naphthylsulfonyl)-3-aminomethyl-(D,L)-phenylalanyl-4-methylpiperidide], the pKi is less than 3.00 in data set [2]; less than 3.00 in data set [4]; 4.57 in data set [5]; 5.72 in [6]; 3.30 in data set [8]; 4.12 in [9]. Also, the pKi is greater than 3.00 in data set [10] and 5.47 in data set [12].
In the case of `CC1CCN(C(=O)C(Cc2cccc(N)c2)NS(=O)(=O)c2ccc3ccccc3c2)CC1` (racemic) [Compound 203], the pKi in [2] is less than 3.00; in data set [4] it was less than 3.00; in [5] it was less than 3.00; in data set [6], 5.05; in [8] it was 3.68; in data set [9], less than 3.00. Besides, the negative logarithm of the Ki (pKi) in [10] is 3.57; in data set [12] it was less than 3.00.
As for `N=C(N)Nc1cccc(CC(NS(=O)(=O)c2ccc3ccccc3c2)C(=O)N2CCCCC2)c1` (racemic) [Compound 207, N-α-(2-Naphthylsulfonyl)-3-quanidino-(D,L)-phenylalanine-piperidide hydrochloride], the pKi is less than 3.00 in data set [2]; less than 3.00 in data set [4]; 4.77 in data set [5]; 6.40 in data set [6]; 3.97 in [8]; less than 3.00 in data set [9]. Also, the pKi is less than 3.00 in [10] and 5.39 in data set [12].
Turning to `COC(=O)[C@H]1CCCN1C(=O)[C@H](Cc1cccc(C(=N)N)c1)NS(=O)(=O)c1ccc2ccccc2c1` [Compound 124, N-α-(2-Naphthylsulfonyl)-3-amidino-(L)-phenylalanyl-(D)-proline-methyl ester hydrochloride], the pKi was 3.65 in data set [2]; 4.54 in data set [4]; 4.96 in [5]; 6.57 in data set [6]; 3.98 in [8]; less than 3.00 in data set [9]. The pKi was 3.22 in [10] and 5.47 in data set [12]. The figures for the LD50 at 168 h in data set [7] (iv) and in data set [7] (po) were 80 mg/kg and greater than 3000 mg/kg, respectively.
